Experiments:
NPFF receptor = settings: rat tissue; cited from earlier work
[1] = molecular target: T1, human somatostatin receptor subtype SSTR1 (Homo sapiens, UniProt P30872); assay: Competition binding with 125I-LTT-sst-28, CHO cell membranes, SSTR1; settings: membranes of CHO cells stably transfected with human SSTR1, Ki from IC50 by Cheng-Prusoff
T1 construct: expressed in transfected cells; host or cells: Chinese hamster ovary (CHO) cells, membranes
Method: (§1) The affinity of the compounds of the invention for the five human somatostatin receptor subtypes (SSTR1, SSTR2, SSTR3, SSTR4, and SSTR5) was determined in competition binding assays with (^125I-Tyr)-[Leu^8, DTrp^22]-somatostatin-28 (^125I-LTT-sst-28). The biological material for these experiments consisted of membranes from Chinese hamster ovary (CHO) cells stably transfected with one of the five human somatostatin receptor subtypes. Membranes (3-20 μg of total protein per sample) and trace amount of ^125I-LTT-sst-28 were incubated in 10 mM Hepes, 1 mM EDTA, 5 mM MgCl2, 5 mg/ml of BSA and 30 μg/ml bacitracin, pH 7.6 with six concentrations of the compounds. Each concentration was run in duplicate. Nonspecific binding was defined by 1 μM somatostatin-14 (sst-14) and corresponded to 5-25% of total binding. After 60 min at room temperature, incubations were terminated by rapid vacuum filtration through GF/B glass fiber filter mats (presoaked at 4° C. in 200 ml of 10 mM Hepes, 1 mM EDTA, 5 mM MgCl2, pH 7.6) and three 5 ml washes with ice-cold wash buffer (20 mM TRIS, 1 mM EDTA, 5 mM MgCl2, pH 7.4). The filters were then dried, impregnated with scintillate and their radioactivity was measured by scintillation counting. The analysis of the experiments was carried out by nonlinear least square curve fitting. Affinity constants (Ki) were calculated from the IC50 values according to the Cheng-Prusoff's equation (Cheng and Prusoff, 1973). Experiments were repeated a minimum of three times.

[2] = molecular target: T2, human somatostatin receptor subtype SSTR2 (Homo sapiens, UniProt P30874); assay: Competition binding with 125I-LTT-sst-28, CHO cell membranes, SSTR2; settings: membranes of CHO cells stably transfected with human SSTR2, Ki from IC50 by Cheng-Prusoff
T2 construct: expressed in transfected cells; host or cells: Chinese hamster ovary (CHO) cells, membranes
T2 sequence (P30874 whole entry): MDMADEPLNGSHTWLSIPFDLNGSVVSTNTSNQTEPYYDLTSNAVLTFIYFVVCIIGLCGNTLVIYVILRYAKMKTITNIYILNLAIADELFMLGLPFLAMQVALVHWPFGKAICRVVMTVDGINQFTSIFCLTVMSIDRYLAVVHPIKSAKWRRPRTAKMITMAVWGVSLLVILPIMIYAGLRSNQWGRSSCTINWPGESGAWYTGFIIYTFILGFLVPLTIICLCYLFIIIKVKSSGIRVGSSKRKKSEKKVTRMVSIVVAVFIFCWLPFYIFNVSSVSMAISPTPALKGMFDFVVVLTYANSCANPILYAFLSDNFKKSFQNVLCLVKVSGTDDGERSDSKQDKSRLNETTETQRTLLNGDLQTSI
Method: as §1

[3] = molecular target: T3, human somatostatin receptor subtype SSTR3 (Homo sapiens, UniProt P32745); assay: Competition binding with 125I-LTT-sst-28, CHO cell membranes, SSTR3; settings: membranes of CHO cells stably transfected with human SSTR3, Ki from IC50 by Cheng-Prusoff
T3 construct: expressed in transfected cells; host or cells: Chinese hamster ovary (CHO) cells, membranes
T3 sequence (P32745 whole entry): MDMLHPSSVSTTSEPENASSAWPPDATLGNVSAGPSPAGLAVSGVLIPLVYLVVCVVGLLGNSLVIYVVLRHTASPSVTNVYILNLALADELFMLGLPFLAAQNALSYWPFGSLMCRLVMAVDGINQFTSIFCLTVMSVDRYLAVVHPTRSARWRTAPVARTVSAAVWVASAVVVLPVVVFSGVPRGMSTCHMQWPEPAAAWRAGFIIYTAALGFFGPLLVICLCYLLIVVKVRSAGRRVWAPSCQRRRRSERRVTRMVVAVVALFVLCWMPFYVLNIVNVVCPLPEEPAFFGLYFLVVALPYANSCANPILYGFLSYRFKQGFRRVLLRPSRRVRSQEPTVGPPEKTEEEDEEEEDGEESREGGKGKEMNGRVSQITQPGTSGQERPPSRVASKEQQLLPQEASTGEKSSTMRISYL
Method: as §1

[4] = molecular target: T4, human somatostatin receptor subtype SSTR4 (Homo sapiens, UniProt P31391); assay: Competition binding with 125I-LTT-sst-28, CHO cell membranes, SSTR4; settings: membranes of CHO cells stably transfected with human SSTR4, Ki from IC50 by Cheng-Prusoff
T4 construct: expressed in transfected cells; host or cells: Chinese hamster ovary (CHO) cells, membranes
T4 sequence (P31391 whole entry): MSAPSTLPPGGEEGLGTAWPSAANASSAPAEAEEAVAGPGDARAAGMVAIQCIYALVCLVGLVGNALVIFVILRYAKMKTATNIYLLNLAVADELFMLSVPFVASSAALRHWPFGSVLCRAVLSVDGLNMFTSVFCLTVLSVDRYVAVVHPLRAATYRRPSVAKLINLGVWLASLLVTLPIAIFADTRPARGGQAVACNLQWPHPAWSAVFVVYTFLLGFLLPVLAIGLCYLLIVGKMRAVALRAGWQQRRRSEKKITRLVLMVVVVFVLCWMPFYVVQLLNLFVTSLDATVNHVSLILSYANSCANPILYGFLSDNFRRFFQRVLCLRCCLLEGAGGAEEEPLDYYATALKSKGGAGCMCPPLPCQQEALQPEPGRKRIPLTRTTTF
Method: as §1

[5] = molecular target: T5, human somatostatin receptor subtype SSTR5 (Homo sapiens, UniProt P35346); assay: Competition binding with 125I-LTT-sst-28, CHO cell membranes, SSTR5; settings: membranes of CHO cells stably transfected with human SSTR5, Ki from IC50 by Cheng-Prusoff
T5 construct: expressed in transfected cells; host or cells: Chinese hamster ovary (CHO) cells, membranes
T5 sequence (P35346 whole entry): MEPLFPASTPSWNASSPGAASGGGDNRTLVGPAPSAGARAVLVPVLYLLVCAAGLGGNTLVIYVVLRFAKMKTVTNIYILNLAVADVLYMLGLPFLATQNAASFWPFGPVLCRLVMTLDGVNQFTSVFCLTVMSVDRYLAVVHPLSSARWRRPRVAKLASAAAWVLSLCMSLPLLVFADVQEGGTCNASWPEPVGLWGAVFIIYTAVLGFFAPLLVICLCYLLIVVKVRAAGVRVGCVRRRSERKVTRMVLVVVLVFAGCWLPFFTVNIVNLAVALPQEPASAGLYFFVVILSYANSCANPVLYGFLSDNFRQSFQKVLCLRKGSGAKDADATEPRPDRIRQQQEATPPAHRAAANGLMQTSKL
Method: as §1

T1 sequence (P30872 whole entry): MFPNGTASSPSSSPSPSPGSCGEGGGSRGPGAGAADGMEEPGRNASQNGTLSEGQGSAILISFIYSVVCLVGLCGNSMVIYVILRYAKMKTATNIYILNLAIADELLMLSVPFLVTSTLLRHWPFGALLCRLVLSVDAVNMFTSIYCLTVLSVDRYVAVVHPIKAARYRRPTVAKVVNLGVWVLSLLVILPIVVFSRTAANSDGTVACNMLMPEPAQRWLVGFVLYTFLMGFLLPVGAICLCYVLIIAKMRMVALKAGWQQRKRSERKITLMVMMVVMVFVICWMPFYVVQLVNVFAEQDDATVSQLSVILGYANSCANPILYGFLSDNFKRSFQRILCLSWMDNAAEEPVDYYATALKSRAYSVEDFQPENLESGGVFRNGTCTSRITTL

Structure (SMILES) | Ki [1] | Ki [2] | Ki [3] | Ki [4] | Ki [5] | affinity for NPFF receptor (NPFF receptor)
CN(C)c1cccc2c(S(=O)(=O)N[C@@H](CCCN=C(N)N)C(=O)N[C@@H](Cc3ccccc3)C(N)=O)cccc12 [Dansyl-RFamide] | – | – | – | – | – | 73 nM
Cc1ccc(S(=O)(=O)N[C@@H](CCCNC(=N)N)C(=O)N[C@@H](Cc2ccccc2)C(N)=O)c2ccccc12 [compound 1, N-((S)-1-carbamoyl-2-phenylethyl)-5-guanidino-(S)-2-(N′-(4-methyl-1-naphthalenesulfonyl)amino)pentanamide] | 0.073 ± 0.019 µM | > 10 µM | > 10 µM | 0.0036 ± 0.0007 µM | > 10 µM | –
Cc1ccc(S(=O)(=O)N[C@@H](CCCNC(=N)N)C(=O)N[C@H](C(N)=O)C(c2ccccc2)c2ccccc2)c2ccccc12 [compound 2, N-((S)-1-carbamoyl-2,2-diphenylethyl)-5-guanidino-(S)-2-(N′-(4-methyl-1-naphthalenesulfonyl)amino)pentanamide] | 0.034 ± 0.014 µM | > 10 µM | > 5 µM | 0.0015 ± 0.0007 µM | > 5 µM | –
Cc1ccc(S(=O)(=O)N[C@@H](CCCN)C(=O)N[C@@H](Cc2ccccc2)C(N)=O)c2ccccc12 [compound 3, 5-amino-N-((S)-1-carbamoyl-2-phenylethyl)-(S)-2-(N′-(4-methyl-1-naphthalenesulfonyl)amino)pentanamide] | 0.26 ± 0.02 µM | > 1 µM | > 1 µM | 0.0065 ± 0.0017 µM | > 1 µM | –

More lines, main results first:

Ki [1] | Ki [2] | Ki [3] | Ki [4] | Ki [5] | Structure (SMILES) | affinity for NPFF receptor (NPFF receptor)
0.5 ± 0.15 µM | > 1 µM | – | – | 0.54 ± 0.08 µM | Cc1ccc(S(=O)(=O)N[C@@H](CCN)C(=O)N[C@@H](Cc2ccccc2)C(N)=O)c2ccccc12 [compound 5, 4-amino-N-((S)-1-carbamoyl-2-phenylethyl)-(S)-2-(N′-(4-methyl-1-naphthalenesulfonyl)amino)butanamide] | –
0.99 ± 0.08 µM | > 10 µM | – | 0.0023 ± 0.0004 µM | – | CCc1ccc(S(=O)(=O)N[C@@H](CCN)C(=O)N[C@@H](Cc2ccccc2)C(N)=O)c2ccccc12 [compound 6, 4-amino-N-((S)-1-carbamoyl-2-phenylethyl)-(S)-2-(N′-(4-ethyl-1-naphthalenesulfonyl)amino)butanamide] | –
> 1 µM | > 10 µM | > 5 µM | 0.0053 ± 0.0021 µM | > 10 µM | Cc1ccc(S(=O)(=O)N[C@@H](CCN)C(=O)N[C@H](C(N)=O)C(c2ccccc2)c2ccccc2)c2ccccc12 [compound 7, 4-amino-N-((S)-1-carbamoyl-2,2-diphenylethyl)-(S)-2-(N′-(4-methyl-1-naphthalenesulfonyl)amino)butanamide] | –
